Legend:
[1] = test system: murine pancreatic tumor (Pan02); experiment: Pan02 pancreatic tumor growth in C57BL/6 mice; assay type: in vivo
Procedure: To obtain the data presented in FIG. 1, a murine pancreatic tumor (Pan02) was engrafted in C57BL/6 mice. When tumors reached an average size of 50-100 mm^3, tumor bearing mice were assigned to one of four experimental groups and treatment was initiated. Groups of mice received: (1) saline (control), (2) anti-PD-1 antibody (BIO X CELL®, 200 μg/dose every 3 days), (3) the β-adrenergic signaling antagonist propranolol (10 mg/kg daily by intraperitoneal injection) or (4) combination therapy. Tumor growth was monitored and graphed as relative tumor volume compared to each tumor's starting volume. […] The data accordingly indicate that the combination therapy can be effective against pancreatic tumors that are resistant to treatment with the checkpoint inhibitor alone.

[2] = test system: 4T1 breast cancer model; experiment: 4T1 breast cancer model tumor growth in BALB/c mice; assay type: in vivo; conditions: 4T1 in BALB/c mice; propranolol started three days before anti-PD-1

CC(C)NCC(O)COc1cccc2ccccc12 (stereo not drawn) [propranolol]
tumor growth (relative tumor volume compared to starting volume) ([1]; Pan02 in C57BL/6 mice, anti-PD-1 200 μg/dose every 3 days, propranolol 10 mg/kg daily i.p., Students t-test): neither anti-PD-1 nor propranolol alone caused a statistically significant decrease in tumor growth | efficacy of anti-PD-1 checkpoint inhibition ([1]; propranolol added to anti-PD-1, Pan02 tumors in C57BL/6 mice, p<0.05): significantly improved the efficacy of anti-PD-1 checkpoint inhibition | tumor growth (absolute and relative tumor volume) [2]: neither propranolol nor anti-PD-1 mAb alone has any impact on tumor growth

Reference: patent publication US20210221890A1, “COMBINATION OF BETA-ADRENERGIC RECEPTOR ANTAGONISTS AND CHECK POINT INHIBITORS FOR IMPROVED EFFICACY AGAINST CANCER” (Health Research, Inc., priority 2015, published 2021)
